Usually Kd stands for the free concentration of one partner at which half of the binding sites on the other are occupied at equilibrium, for simple one-to-one binding.

SMILES strings stand for the structures. Where a SMILES comes first, the peptide text is derived from it. Bridges are numbered along the chain shown (N, C = ends). [ ]: non-standard residue; d: D form. PEG12 = NCCOCCOCCOCCOCCOCCOCCOCCOCCOCCOCCOCCOCCC(=O)O; NMeY = CN[C@@H](Cc1ccc(O)cc1)C(=O)O; NMeF = CN[C@@H](Cc1ccccc1)C(=O)O; Ahp(2) = CCCCC[C@H](N)C(=O)O

Sequence of transferrin receptor (hTfR) (P02786 whole entry): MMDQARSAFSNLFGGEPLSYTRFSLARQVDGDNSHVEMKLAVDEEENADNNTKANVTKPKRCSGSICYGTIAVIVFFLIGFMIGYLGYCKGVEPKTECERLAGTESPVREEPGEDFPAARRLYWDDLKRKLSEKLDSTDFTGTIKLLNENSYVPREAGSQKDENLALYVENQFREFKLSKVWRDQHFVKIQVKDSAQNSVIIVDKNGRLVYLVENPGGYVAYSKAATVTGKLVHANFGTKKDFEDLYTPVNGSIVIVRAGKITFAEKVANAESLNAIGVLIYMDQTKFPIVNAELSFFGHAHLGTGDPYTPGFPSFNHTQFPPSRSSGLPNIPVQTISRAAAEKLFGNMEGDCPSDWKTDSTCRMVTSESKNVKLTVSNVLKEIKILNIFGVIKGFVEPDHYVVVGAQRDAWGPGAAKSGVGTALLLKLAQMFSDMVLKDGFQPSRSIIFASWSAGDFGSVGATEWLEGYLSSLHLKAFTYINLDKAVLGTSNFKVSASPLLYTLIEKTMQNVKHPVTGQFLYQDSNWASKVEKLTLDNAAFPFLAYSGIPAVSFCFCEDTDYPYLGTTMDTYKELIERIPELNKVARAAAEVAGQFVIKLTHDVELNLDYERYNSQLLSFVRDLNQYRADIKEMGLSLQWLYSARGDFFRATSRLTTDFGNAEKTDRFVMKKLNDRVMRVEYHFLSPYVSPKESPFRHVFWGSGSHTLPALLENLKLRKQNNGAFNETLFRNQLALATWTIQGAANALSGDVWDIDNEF

This assay addresses transferrin receptor (hTfR) (Homo sapiens, UniProt P02786). Description: Intermolecular interaction evaluation test between transferrin receptor (hTfR) and peptide by surface plasmon resonance (SPR). In kind it is binding. The note with it: SPR; hTfR No. 894 variants with PEG12c linker (Table 2); read-out: KD. The protocol: For each of the various synthesized peptides, the intermolecular interaction of the peptide with the transferrin receptor (hTfR) was tested by surface plasmon resonance (SPR) according to the following method. The specific test method is as follows.
An NTA sensor chip (Global Life Sciences Technologies Japan) was inserted in a Biacore T200 (Global Life Sciences Technologies Japan) and a prime operation was performed 3 times with a running buffer: 10 mM HEPES pH 8.0 (Nacalai Tesque), 150 mM NaCl (Nacalai Tesque), 0.05% Tween 20 (Nacalai Tesque), 0.1% BSA (Sigma-Aldrich), 1.0% DMSO (FUJIFILM Wako Pure Chemical) to create an Equilibration state at a flow rate of 30 µL/min. After reacting with 350 mM EDTA solution for 60 seconds at a flow rate of 10 µL/min then reacting with 0.5 mM NiCl2 solution (Kishida Chemical) for 60 seconds at a flow rate of 10 µL/min, the NTA sensor chip was washed with 3 mM EDTA solution (Nacalai Tesque) for 60 seconds at a flow rate of 10 µL/min. After mixing 50 µL each of 60 mM EDC solution (Global Life Sciences Technologies Japan) and 650 mM NHS solution (Global Life Sciences Technologies Japan), the mixture was reacted for 420 seconds at a flow rate of 10 µL/min. By diluting with the running buffer, 150 µL of 3.2 µM hTfR solution was prepared and used for reaction for 600 seconds at a flow rate of 10 µL/min, thereby immobilizing hTfR on the NTA sensor chip. After immobilization, capping was performed by reacting with 1.0 M ethanolamine aqueous solution (Global Life Sciences Technologies Japan) for 420 seconds at a flow rate of 10 µL/min. A peptide dissolution liquid prepared to 10 mM in the DMSO solution was diluted with the running buffer to a final concentration of 10 µM so as to become the peptide dissolution liquid, then peptide solutions of 100 nM, 50 nM, 25 nM, 10 nM and 5 nM were prepared. Kinetics of the peptide to hTfR was acquired by SPR measurement using the above-mentioned samples. Single-cycle kinetics was used as a kinetic evaluation model and curve fitting was performed using Biacore T200 Evaluation Software Version 3.0 (Global Life Sciences Technologies Japan). An obtained sensorgram was subjected to curve fitting using the least-squares method, and the binding of the peptide to hTfR was evaluated by obtaining KD values. […] A chemical structure of hTfR No. 894 is as follows.
The variant peptides were synthesized according to Example 1 unless otherwise stated in Example 9 or 10. The linker-added peptides were synthesized according to Example 1, except that Fmoc-NH-SAL-PEG resin (Watanabe Chemical Industries) was used as a resin for the peptide synthesis when the linker was PEG. The peptide, to which a peptide, a fatty acid, PEG, or a conjugate thereof is added as a linker, was also synthesized according to Example 1, unless otherwise stated in Example 9 or 10.
(Surface plasmon resonance follows binding to a sensor surface in real time, without labels.)
In the case of `CC[C@H](C)[C@@H]1NC(=O)[C@H](Cc2ccc(O)cc2)NC(=O)[C@H](Cc2ccc(O)cc2)NC(=O)[C@H](CC(N)=O)NC(=O)[C@H](Cc2c[nH]c3ccccc23)NC(=O)[C@H](C(C)C)NC(=O)[C@H](Cc2ccccc2)N(C)C(=O)[C@H](C(C)C)NC(=O)[C@H](C)NC(=O)CSC[C@@H](C(=O)NCCOCCOCCOCCOCCOCCOCCOCCOCCOCCOCCOCCOCCC(N)=O)NC(=O)[C@H](Cc2ccc(O)cc2)N(C)C(=O)[C@H](C)NC(=O)[C@H](CCCNC(=N)N)NC(=O)[C@H](CCCNC(=N)N)NC(=O)[C@H]([C@@H](C)CC)NC1=O` [compound 123], the Kd was in the range of 1 to 100 nM.

As to `CC[C@H](C)[C@@H]1NC(=O)[C@H](Cc2ccc(O)cc2)NC(=O)[C@H](Cc2ccc(O)cc2)NC(=O)[C@H](CC(N)=O)NC(=O)[C@H](Cc2c[nH]c3ccccc23)NC(=O)[C@H](C(C)C)NC(=O)[C@H](Cc2ccccc2)N(C)C(=O)[C@H](C(C)C)NC(=O)[C@H](C)NC(=O)CSC[C@@H](C(=O)NCCOCCOCCOCCOCCOCCOCCOCCOCCOCCOCCOCCOCCC(N)=O)NC(=O)[C@H](CCC(=O)O)NC(=O)[C@H](Cc2ccc(O)cc2)NC(=O)[C@H](CCCNC(=N)N)NC(=O)[C@H](CCCNC(=N)N)NC(=O)[C@H]([C@@H](C)CC)NC1=O` [compound 124], the dissociation constant (Kd) lay within 100 to 1000 nM.

For the compound `CC[C@H](C)[C@@H]1NC(=O)[C@H](Cc2ccc(O)cc2)NC(=O)[C@H](Cc2c[nH]c3ccccc23)NC(=O)[C@H](CC(N)=O)NC(=O)[C@H](Cc2c[nH]c3ccccc23)NC(=O)[C@H](C(C)C)NC(=O)[C@H](Cc2ccccc2)N(C)C(=O)[C@H](C(C)C)NC(=O)[C@H](C)NC(=O)CSC[C@@H](C(=O)NCCOCCOCCOCCOCCOCCOCCOCCOCCOCCOCCOCCOCCC(N)=O)NC(=O)[C@H](Cc2ccc(O)cc2)N(C)C(=O)[C@H](Cc2ccc(O)cc2)NC(=O)[C@H](CCCNC(=N)N)NC(=O)[C@H](CCCNC(=N)N)NC(=O)[C@H]([C@@H](C)CC)NC1=O` [compound 125] ({CH2CO}-AV[NMeF]VWNWYIIRRY[NMeY]C[PEG12]-NH2; thioether N-15), the Kd fell in the range of 1 to 100 nM.

For the compound `CC[C@H](C)[C@@H]1NC(=O)[C@H](Cc2ccc(O)cc2)NC(=O)[C@H](Cc2ccc(O)cc2)NC(=O)[C@H](CC(N)=O)NC(=O)[C@H](Cc2c[nH]c3ccccc23)NC(=O)[C@H](C(C)C)NC(=O)[C@H](Cc2ccccc2)N(C)C(=O)[C@H](C(C)C)NC(=O)[C@H](C)NC(=O)CSC[C@@H](C(=O)NCCOCCOCCOCCOCCOCCOCCOCCOCCOCCOCCOCCOCCC(N)=O)NC(=O)[C@H](CCCNC(=N)N)NC(=O)[C@H](Cc2ccc(O)cc2)NC(=O)[C@H](CCCNC(=N)N)NC(=O)[C@H](CCCNC(=N)N)NC(=O)[C@H]([C@@H](C)CC)NC1=O` [compound 127], the Kd was 1 to 100 nM.

For the compound `CC[C@H](C)[C@@H]1NC(=O)[C@H](Cc2ccc(O)cc2)NC(=O)[C@H](Cc2ccc(O)cc2)NC(=O)[C@H](CC(N)=O)NC(=O)[C@H](CCc2ccccc2)NC(=O)[C@H](C(C)C)NC(=O)[C@H](Cc2ccccc2)N(C)C(=O)[C@H](C(C)C)NC(=O)[C@H](C)NC(=O)CSC[C@@H](C(=O)NCCOCCOCCOCCOCCOCCOCCOCCOCCOCCOCCOCCOCCC(N)=O)NC(=O)[C@H](Cc2ccc(O)cc2)N(C)C(=O)[C@H](Cc2ccc(O)cc2)NC(=O)[C@H](CCCNC(=N)N)NC(=O)[C@H](CCCNC(=N)N)NC(=O)[C@H]([C@@H](C)CC)NC1=O` [compound 128], the dissociation constant Kd lay within 1 to 100 nM.

In the case of `CCCCC[C@@H]1NC(=O)[C@H](C)NC(=O)CSC[C@@H](C(=O)NCCOCCOCCOCCOCCOCCOCCOCCOCCOCCOCCOCCOCCC(N)=O)NC(=O)[C@H](Cc2ccc(O)cc2)N(C)C(=O)[C@H](Cc2ccc(O)cc2)NC(=O)[C@H](CCCNC(=N)N)NC(=O)[C@H](CCCNC(=N)N)NC(=O)[C@H]([C@@H](C)CC)NC(=O)[C@H]([C@@H](C)CC)NC(=O)[C@H](Cc2ccc(O)cc2)NC(=O)[C@H](Cc2ccc(O)cc2)NC(=O)[C@H](CC(N)=O)NC(=O)[C@H](Cc2c[nH]c3ccccc23)NC(=O)[C@H](C(C)C)NC(=O)[C@H](Cc2ccccc2)N(C)C1=O` [compound 130] ({CH2CO}-A[Ahp(2)][NMeF]VWNYYIIRRY[NMeY]C[PEG12]-NH2; thioether N-15), the Kd lay within 1 to 100 nM.

With `CC[C@H](C)[C@@H]1NC(=O)[C@H](Cc2ccc(O)cc2)NC(=O)[C@H](Cc2ccc(O)cc2)NC(=O)[C@H](CC(N)=O)NC(=O)[C@H](Cc2c[nH]c3ccccc23)NC(=O)[C@H](C(C)C)NC(=O)[C@H](Cc2ccccc2)N(C)C(=O)[C@H](Cc2ccccc2)NC(=O)[C@H](C)NC(=O)CSC[C@@H](C(=O)NCCOCCOCCOCCOCCOCCOCCOCCOCCOCCOCCOCCOCCC(N)=O)NC(=O)[C@H](Cc2ccc(O)cc2)N(C)C(=O)[C@H](Cc2ccc(O)cc2)NC(=O)[C@H](CCCNC(=N)N)NC(=O)[C@H](CCCNC(=N)N)NC(=O)[C@H]([C@@H](C)CC)NC1=O` [compound 133] ({CH2CO}-AF[NMeF]VWNYYIIRRY[NMeY]C[PEG12]-NH2; thioether N-15), the dissociation constant Kd was 1 to 100 nM.

`CC[C@H](C)[C@@H]1NC(=O)[C@H](Cc2ccc(O)cc2)NC(=O)[C@H](Cc2ccccc2)NC(=O)[C@H](CC(N)=O)NC(=O)[C@H](Cc2c[nH]c3ccccc23)NC(=O)[C@H](C(C)C)NC(=O)[C@H](Cc2ccccc2)N(C)C(=O)[C@H](C(C)C)NC(=O)[C@H](C)NC(=O)CSC[C@@H](C(=O)NCCOCCOCCOCCOCCOCCOCCOCCOCCOCCOCCOCCOCCC(N)=O)NC(=O)[C@H](Cc2ccc(O)cc2)N(C)C(=O)[C@H](Cc2ccc(O)cc2)NC(=O)[C@H](CCCNC(=N)N)NC(=O)[C@H](CCCNC(=N)N)NC(=O)[C@H]([C@@H](C)CC)NC1=O` [compound 135] ({CH2CO}-AV[NMeF]VWNFYIIRRY[NMeY]C[PEG12]-NH2; thioether N-15): the Kd was in the range of 1 to 100 nM.

As to `CC[C@H](C)[C@@H]1NC(=O)[C@H](Cc2ccc(O)cc2)NC(=O)[C@H](Cc2ccc(O)cc2)NC(=O)[C@H](CC(N)=O)NC(=O)[C@H](Cc2c[nH]c3ccccc23)NC(=O)[C@H](C(C)C)NC(=O)[C@H](Cc2ccc(OC)cc2)N(C)C(=O)[C@H](C(C)C)NC(=O)[C@H](C)NC(=O)CSC[C@@H](C(=O)NCCOCCOCCOCCOCCOCCOCCOCCOCCOCCOCCOCCOCCC(N)=O)NC(=O)[C@H](Cc2ccc(O)cc2)N(C)C(=O)[C@H](Cc2ccc(O)cc2)NC(=O)[C@H](CCCNC(=N)N)NC(=O)[C@H](CCCNC(=N)N)NC(=O)[C@H]([C@@H](C)CC)NC1=O` [compound 136] ({CH2CO}-AV[NMeY](Me)VWNYYIIRRY[NMeY]C[PEG12]-NH2; thioether N-15), the dissociation constant Kd lay in the range of 1 to 100 nM.

For the compound `CCCCC[C@@H]1NC(=O)[C@H](Cc2ccc(O)cc2)NC(=O)[C@H](CC(N)=O)NC(=O)[C@H](Cc2c[nH]c3ccccc23)NC(=O)[C@H](C(C)C)NC(=O)[C@H](Cc2ccccc2)N(C)C(=O)[C@H](C(C)C)NC(=O)[C@H](C)NC(=O)CSC[C@@H](C(=O)NCCOCCOCCOCCOCCOCCOCCOCCOCCOCCOCCOCCOCCC(N)=O)NC(=O)[C@H](Cc2ccc(O)cc2)N(C)C(=O)[C@H](Cc2ccc(O)cc2)NC(=O)[C@H](CCCNC(=N)N)NC(=O)[C@H](CCCNC(=N)N)NC(=O)[C@H]([C@@H](C)CC)NC(=O)[C@H]([C@@H](C)CC)NC1=O` [compound 139] ({CH2CO}-AV[NMeF]VWNY[Ahp(2)]IIRRY[NMeY]C[PEG12]-NH2; thioether N-15), the Kd was 1 to 100 nM.

The values above are taken from patent US20230203098A1, “HUMAN TRANSFERRIN RECEPTOR BINDING PEPTIDE” (priority 2020, published 2023).
